The values that follow come from publication PMC11111404, “Discovery of potent small-molecule inhibitors of lipoprotein(a) formation” (Nature, 2024).

Where two headings read alike, the source gives them in different places.

In test [1] the target is apo(a) KIV7. The arrangement: method as in PMID 11802713. As to conditions: binding to lysine-binding domain of apo(a) KIV7; cited from earlier work.
Test [2] has as its system Lp(a) assembly. On the set-up: method as in PMID 11802713. Particulars: cited from earlier work.
The test system of test [3] is Lp(a). Particulars: humans; cited from earlier work.
Test [4] concerns the target T1, apo(a) KIV5–8 (Homo sapiens, UniProt P08519).
T1 construct: made in house
T1 sequence (P08519 1043-1470 limits assumed): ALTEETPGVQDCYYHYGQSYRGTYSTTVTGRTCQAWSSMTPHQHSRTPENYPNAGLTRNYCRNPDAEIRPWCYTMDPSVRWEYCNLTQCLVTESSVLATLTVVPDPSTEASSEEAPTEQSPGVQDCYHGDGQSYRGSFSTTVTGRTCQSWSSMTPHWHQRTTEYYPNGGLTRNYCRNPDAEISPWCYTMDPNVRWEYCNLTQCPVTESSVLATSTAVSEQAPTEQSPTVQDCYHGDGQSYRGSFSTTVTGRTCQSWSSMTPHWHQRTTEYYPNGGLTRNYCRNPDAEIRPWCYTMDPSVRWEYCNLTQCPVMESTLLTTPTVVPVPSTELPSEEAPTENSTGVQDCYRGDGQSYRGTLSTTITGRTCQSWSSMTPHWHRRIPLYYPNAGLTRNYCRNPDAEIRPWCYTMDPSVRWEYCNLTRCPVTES
The experiment in a line: ITC binding to apo(a) KIV5–8. On the procedure: (§1) The nucleotide sequence encoding the human LPA gene (NP_005568.2) was inserted into a mammalian expression vector containing a cytomegalovirus promoter. Protein expression was performed by transient transfection of human embryonic kidney 293 (HEK293) cells cultured in serum-free medium. The culture medium was collected five days after transfection and human apo(a) protein was purified using L-lysine affinity chromatography. Nucleotide sequences encoding various KIV domains of human apo(a) and human and rat plasminogen were inserted into a pET21a Escherichia coli expression vector. Bacterial BL21(DE3) was used as the expression host, and the induction of protein expression was performed in 2× TY medium with 1 mM isopropyl β-D-1-thiogalactopyranoside at 37 °C for 5 h. Cells were collected and stored at –80 °C for subsequent protein purification and refolding. […] All protein concentrations were determined by A280.
Experiments were performed on a MicroCal Auto-iTC200 titration calorimeter (Malvern Panalytical), with a cell volume of 200 μl and a 40-μl microsyringe. […] The microsyringe was loaded with a solution of the respective compounds, with the concentration measured by quantitative nuclear magnetic resonance, and was inserted into the calorimetric cell prefilled with the respective recombinant proteins of known concentration in ITC buffer. […]

For test [5], the target named is T2, Lp(a) assembly (recombinant human 16K apo(a) and apoB) (Homo sapiens, UniProt P08519).
T2 construct: containing one KIV type 1, six KIV type 2 repeats, one each of KIV types 3–10 and one KV; expressed in transfected cells; host or cells: Conditioned medium of HEK293 (CRL-1573) stably expressing 16K apo(a), combined with conditioned medium of wild-type HepG2 (HB-8065) for endogenous apoB
The experiment in a line: In vitro Lp(a) assembly assay. Format: biochemical.
Description: HepG2 cells (HB-8065, ATCC) were cultured in Dulbecco’s modified Eagle’s medium, supplemented with 10% fetal bovine serum, 20 mM 4-(2-hydroxyethyl)-1-piperazineethanesulfonic acid (HEPES) and 100 U ml^−1 penicillin–streptomycin. apoB-conditioned media were collected after 24 h of culture at 37 °C and 5% CO2 from confluent wild-type HepG2 cells that endogenously express and secrete apoB. Apo(a)-conditioned media were collected after 24 h of culture at 37 °C and 5% CO2 from HEK293 cells (CRL-1573, ATCC) that stably express and secrete recombinant human 16K apo(a) protein containing one KIV type 1, six KIV type 2 repeats, one each of KIV types 3–10 and one KV.
The assembly assay was conducted in 96-well polypropylene plates by combining HepG2 and apo(a)-HEK293-conditioned media in the presence of a range of compound concentrations. After a two-hour incubation period at 37 °C, the reaction was stopped by the addition of 6-aminocaproic acid. Lp(a) was detected using a sandwich enzyme-linked immunosorbent assay (ELISA), with a polyclonal goat anti-apo(a) capture antibody (Abcam ab31675) and a biotin-conjugated, polyclonal goat anti-apoB detection antibody (Abcam ab20898). In brief, ELISA plates were coated with 100 μl of the capture antibody at a 1:12,500 dilution (around 4 μg ml^−1) into HEPES-buffered saline (HBS), incubated overnight at 4 °C, washed and blocked by the addition of 200 μl of 1% casein. After removal of the blocking buffer, 20 μl of each of the assembly reactions or of a dilution series of purified human Lp(a) (Athens Research, 12-16-121601), diluted 1:5 into HBS supplemented with 0.5% casein, were added to the ELISA plate. […] Absorbance at 450 nm was measured on an Envision plate reader.
The concentration of Lp(a) formed in each test condition was determined on the basis of the standard curve constructed from the purified human Lp(a) used as a reference standard, and was normalized to high (buffer) and low (no apoB) controls. […] Data were analysed in GraphPad Prism v.9.5.1.

Test [6] deals with T3, full-length recombinant 16K apo(a) (Homo sapiens, UniProt P08519).
T3 construct: Full-length apo(a) and various shorter constructs were prepared as described; made in house
The experiment in a line: Radioligand binding to full-length recombinant 16K apo(a). How it is done: (§2) The nucleotide sequence encoding the human LPA gene (NP_005568.2) was inserted into a mammalian expression vector containing a cytomegalovirus promoter. Protein expression was performed by transient transfection of human embryonic kidney 293 (HEK293) cells cultured in serum-free medium. The culture medium was collected five days after transfection and human apo(a) protein was purified using L-lysine affinity chromatography. Nucleotide sequences encoding various KIV domains of human apo(a) and human and rat plasminogen were inserted into a pET21a Escherichia coli expression vector. Bacterial BL21(DE3) was used as the expression host, and the induction of protein expression was performed in 2× TY medium with 1 mM isopropyl β-D-1-thiogalactopyranoside at 37 °C for 5 h. Cells were collected and stored at –80 °C for subsequent protein purification and refolding. The frozen cell pellets were lysed and inclusion bodies were purified. The protein refolding was performed using the rapid-dilution method, and the refolded proteins were further purified by size-exclusion chromatography. All protein concentrations were determined by A280.
(§3) Full-length apo(a) and various shorter constructs were prepared as described. Human and rat plasminogen, purified from plasma by affinity chromatography, were obtained from Innovative Research (IHGPG and IRPLG, respectively).
(§4) All reagents used in the binding assays were prepared in assay buffer containing 50 mM Tris-HCl, pH 7.4, and 0.1% bovine serum albumin. All apo(a) proteins were diluted to a final concentration of 200 pM. Human and rat plasminogen were diluted into assay buffer, and 250 ng was added to each well.
Saturation binding studies of ^3H-LSN3441732 or ^3H-LSN3374443 were conducted by adding to each well of a white-wall, clear-bottom 96-well plate, 50 µl each of (1) dimethyl sulfoxide (DMSO) or a saturating concentration (40 μM) of an unlabelled ligand; (2) protein diluted into assay buffer; (3) resuspended wheat germ agglutinin polyvinyltoluene scintillation proximity assay beads (2 mg ml^−1); and (4) a dilution series of radioligand. Plates were incubated for one to two hours at room temperature and counted on a Wallac Trilux 1450 liquid scintillation counter. Non-specific binding, defined as binding in the presence of the unlabelled ligand, was subtracted to determine specific binding. Specific binding was plotted as a function of ligand concentration, and a single-site binding equation of the form y = Bmax × x/(Kd + x) was fitted to the data, where Bmax is the maximum saturable binding and Kd is the equilibrium dissociation constant.

For test [7], the target named is T1, apo(a) KIV5–8. The experiment in a line: Radioligand binding to apo(a) KIV5–8. Particulars: Experiment 1, read-out: Kd (nM) KIV5–8 Exp 1. How it is done:
as §1, with “h.” for “h. Cells were collected and stored at –80 °C for subsequent protein purification and refolding.”, “A280. […]” for “A280.”
(§5) Saturation binding studies of ^3H-LSN3441732 or ^3H-LSN3374443 were conducted by adding to each well of a white-wall, clear-bottom 96-well plate, 50 µl each of (1) dimethyl sulfoxide (DMSO) or a saturating concentration (40 μM) of an unlabelled ligand; (2) protein diluted into assay buffer; (3) resuspended wheat germ agglutinin polyvinyltoluene scintillation proximity assay beads (2 mg ml^−1); and (4) a dilution series of radioligand. Plates were incubated for one to two hours at room temperature and counted on a Wallac Trilux 1450 liquid scintillation counter. […]

Test [8] concerns the target T4, apo(a) KIV7–8 (Homo sapiens, UniProt P08519).
T4 construct: purified recombinant apo(a) KIV7–8 protein; made in house
T4 sequence (P08519 1263-1470 limits assumed): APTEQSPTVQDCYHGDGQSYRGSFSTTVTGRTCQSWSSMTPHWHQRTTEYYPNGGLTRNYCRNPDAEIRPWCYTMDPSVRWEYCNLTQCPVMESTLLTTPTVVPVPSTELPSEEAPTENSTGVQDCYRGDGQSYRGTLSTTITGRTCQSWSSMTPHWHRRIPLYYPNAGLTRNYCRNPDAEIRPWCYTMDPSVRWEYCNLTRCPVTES
The experiment in a line: Radioligand binding to apo(a) KIV7–8. How it is done: as §2, §3
(§6) All reagents used in the binding assays were prepared in assay buffer containing 50 mM Tris-HCl, pH 7.4, and 0.1% bovine serum albumin. […]
as §5

Test [9] concerns the target T5, apo(a) KIV7 (Homo sapiens, UniProt P08519).
T5 construct: made in house
The experiment in a line: Radioligand binding to apo(a) KIV7. How it is done:
as §2, §3, §6, §5

Test [10] addresses T6, apo(a) KIV8 (Homo sapiens, UniProt P08519).
T6 construct: made in house
T6 sequence (P08519 1387-1465 limits assumed): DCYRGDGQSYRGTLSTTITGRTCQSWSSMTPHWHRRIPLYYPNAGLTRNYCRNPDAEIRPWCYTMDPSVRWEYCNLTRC
The experiment in a line: Radioligand binding to apo(a) KIV8. How it is done: as §1, with “h.” for “h. Cells were collected and stored at –80 °C for subsequent protein purification and refolding.”, “A280. […]” for “A280.”
as §5

The subject of test [11] is rat plasminogen. The experiment in a line: Saturation radioligand binding to rat plasminogen. On the procedure:
as §3, §4
as §5, with “counter. Non-specific binding, defined as binding in the presence of the unlabelled ligand, was subtracted to determine specific binding.” for “counter.”

T3 sequence (P08519 20-2040): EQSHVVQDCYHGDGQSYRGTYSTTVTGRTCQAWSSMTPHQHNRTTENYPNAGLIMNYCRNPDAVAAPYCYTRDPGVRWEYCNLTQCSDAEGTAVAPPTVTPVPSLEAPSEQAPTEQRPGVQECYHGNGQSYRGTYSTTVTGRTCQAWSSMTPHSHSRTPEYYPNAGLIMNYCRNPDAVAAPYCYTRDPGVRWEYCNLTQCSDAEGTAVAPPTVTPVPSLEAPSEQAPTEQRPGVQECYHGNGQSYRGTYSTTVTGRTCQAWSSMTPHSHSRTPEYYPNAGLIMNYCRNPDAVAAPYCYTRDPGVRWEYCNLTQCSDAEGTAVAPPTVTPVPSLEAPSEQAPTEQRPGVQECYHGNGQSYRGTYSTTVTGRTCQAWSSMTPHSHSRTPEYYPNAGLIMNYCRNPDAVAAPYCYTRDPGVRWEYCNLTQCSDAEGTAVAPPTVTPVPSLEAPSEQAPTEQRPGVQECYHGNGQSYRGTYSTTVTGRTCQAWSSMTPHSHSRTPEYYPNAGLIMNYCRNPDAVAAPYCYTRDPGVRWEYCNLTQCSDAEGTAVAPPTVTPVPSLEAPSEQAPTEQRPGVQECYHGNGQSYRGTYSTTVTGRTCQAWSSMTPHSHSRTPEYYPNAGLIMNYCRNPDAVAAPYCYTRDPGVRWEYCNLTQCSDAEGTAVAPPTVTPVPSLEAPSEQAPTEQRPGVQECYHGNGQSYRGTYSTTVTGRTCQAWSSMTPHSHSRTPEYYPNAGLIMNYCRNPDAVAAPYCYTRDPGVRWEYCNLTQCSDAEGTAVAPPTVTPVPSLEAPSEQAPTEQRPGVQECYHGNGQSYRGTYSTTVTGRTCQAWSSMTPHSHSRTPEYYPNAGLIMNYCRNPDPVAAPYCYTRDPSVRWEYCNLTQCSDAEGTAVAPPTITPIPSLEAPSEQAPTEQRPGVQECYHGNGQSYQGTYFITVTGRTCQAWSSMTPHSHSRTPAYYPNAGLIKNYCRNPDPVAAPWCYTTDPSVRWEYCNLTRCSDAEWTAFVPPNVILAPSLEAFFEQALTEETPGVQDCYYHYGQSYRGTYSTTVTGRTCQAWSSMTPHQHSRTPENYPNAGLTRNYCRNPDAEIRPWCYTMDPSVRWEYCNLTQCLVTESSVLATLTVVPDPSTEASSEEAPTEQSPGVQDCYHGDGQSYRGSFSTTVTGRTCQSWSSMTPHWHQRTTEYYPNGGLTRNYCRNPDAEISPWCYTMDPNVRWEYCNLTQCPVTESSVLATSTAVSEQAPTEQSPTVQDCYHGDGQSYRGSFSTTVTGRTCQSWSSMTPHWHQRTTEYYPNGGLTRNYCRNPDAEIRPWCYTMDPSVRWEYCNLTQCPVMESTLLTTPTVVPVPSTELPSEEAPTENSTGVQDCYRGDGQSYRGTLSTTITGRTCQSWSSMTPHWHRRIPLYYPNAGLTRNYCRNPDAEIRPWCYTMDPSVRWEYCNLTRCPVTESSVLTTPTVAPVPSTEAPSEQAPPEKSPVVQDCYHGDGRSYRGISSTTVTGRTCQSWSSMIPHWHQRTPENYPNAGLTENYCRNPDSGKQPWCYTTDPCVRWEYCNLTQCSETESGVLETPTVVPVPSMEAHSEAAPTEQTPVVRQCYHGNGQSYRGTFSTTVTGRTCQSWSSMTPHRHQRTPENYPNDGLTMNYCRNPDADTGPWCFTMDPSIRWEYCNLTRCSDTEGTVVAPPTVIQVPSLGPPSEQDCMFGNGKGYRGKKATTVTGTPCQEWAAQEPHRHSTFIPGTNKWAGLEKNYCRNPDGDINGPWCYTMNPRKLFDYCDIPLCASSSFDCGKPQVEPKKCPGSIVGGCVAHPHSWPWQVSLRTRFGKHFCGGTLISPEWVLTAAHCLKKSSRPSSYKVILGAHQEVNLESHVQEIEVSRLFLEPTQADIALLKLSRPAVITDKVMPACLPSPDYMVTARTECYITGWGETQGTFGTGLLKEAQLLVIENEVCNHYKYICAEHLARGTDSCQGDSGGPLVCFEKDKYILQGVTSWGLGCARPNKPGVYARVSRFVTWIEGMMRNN
T2 sequence (P08519 20-2040): as above

Turning to `NC[C@H]1CC[C@H](C(=O)O)CC1` [tranexamic acid], the Kd in test [1] is 63000 nM. Moreover, the “in vitro assembly of Lp(a)” value in test [2] is on record as “inhibited”. Moreover, the “levels of Lp(a) in a small clinical study” value in test [3] was “reduce the levels of Lp(a)”.

As to `NCCCCCC(=O)O` [ε-aminocaproic acid], the Kd in test [1] was 230000 nM. Further, in [2], the “in vitro assembly of Lp(a)” value was “inhibited”.

In [4], `COc1cccc(N2CCN(c3cccc(C[C@H](C(=O)O)[C@H]4CCNC4)c3)C2=O)c1` [LSN3374443] gave a Kd of less than 15 nM. Moreover, in test [5], the IC50 came out at 36 nM.

For the compound `O=C(Nc1cccc(C[C@H](C(=O)O)[C@H]2CCNC2)c1)Nc1cccc(C[C@H](C(=O)O)[C@H]2CCNC2)c1` [^3H-LSN3441732], the “Bmax, full-length apo(a)” value in test [6] (direct radioligand binding) was 4.9 fmol ng^−1 apo(a). For the same compound, the Kd in test [6] (direct radioligand binding, mean) turned out to be 0.05 nM; in [7], 0.33 nM; in test [8] (direct radioligand binding, read-out: Kd, KIV7–8) it was 0.21 nM; in test [8] (radioligand binding, Experiment 1, read-out: Kd (nM) KIV7–8 Exp 1), 0.32 nM; in [8] (radioligand binding, Experiment 2, read-out: Kd (nM) KIV7–8 Exp 2), 0.1 nM; in test [9] (direct radioligand binding, read-out: Kd, single KIV7), 2.8 nM. Further, the Kd in test [9] (radioligand binding, Experiment 1, read-out: Kd (nM) KIV7 Exp 1) is 3 nM; in [9] (radioligand binding, Experiment 2, read-out: Kd (nM) KIV7 Exp 2), 2.7 nM; in [10] (direct radioligand binding, read-out: Kd, single KIV8) it was 2 nM; in test [10] (radioligand binding, Experiment 1, read-out: Kd (nM) KIV8 Exp 1) it was 3 nM. Further, the “ligands per molecule of apo(a)” value in test [6] (from Bmax) was “one”. Further, the “fold affinity increase versus ^3H-LSN3374443” value in test [6] (full-length apo(a)) was determined as 50 fold. Also, in test [11], the “fold higher affinity for rat plasminogen than for human plasminogen” value is 50 fold.

The term Kd denotes the free concentration of one partner at which half of the binding sites on the other are occupied at equilibrium, for simple one-to-one binding. The term IC50 denotes the concentration that inhibits the measured activity by half.
